Assay results as given in patent publication US5597915A, “Benzodiazepine derivatives, compositions containing them and their use in therapy” (Merck Sharp & Dohme Ltd., priority 1992, dated 1997).

Columns and labels:
CCK Receptor (Pancreas) = biological target: T1, CCK Receptor (Pancreas) (Rattus norvegicus, UniProt P30551); assay: CCK Receptor Binding (Pancreas): inhibition of 125I-CCK-8 binding to rat pancreas membranes; parameters: species or system rat (male Sprague-Dawley); conditions: 50 pM 125I-CCK-8, 25° C., 2 hours, pH 6.5
T1 construct: The whole pancreas was dissected free of fat tissue and was homogenized; from tissue; host or cells: rat whole pancreas homogenate/membranes
T1 sequence (P30551 1-444): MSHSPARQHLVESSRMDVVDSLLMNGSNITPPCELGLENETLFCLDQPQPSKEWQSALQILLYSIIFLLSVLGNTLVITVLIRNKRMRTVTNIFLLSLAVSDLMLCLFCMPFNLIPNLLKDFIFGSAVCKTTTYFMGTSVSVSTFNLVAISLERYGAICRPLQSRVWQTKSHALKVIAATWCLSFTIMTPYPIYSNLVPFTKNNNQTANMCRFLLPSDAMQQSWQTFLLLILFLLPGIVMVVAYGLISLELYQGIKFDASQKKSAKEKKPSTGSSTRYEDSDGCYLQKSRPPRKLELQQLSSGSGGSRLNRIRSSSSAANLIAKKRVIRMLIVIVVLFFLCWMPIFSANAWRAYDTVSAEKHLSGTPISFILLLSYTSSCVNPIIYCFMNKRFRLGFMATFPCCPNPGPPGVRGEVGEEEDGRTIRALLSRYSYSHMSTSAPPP
Procedure: 1. CCK Receptor Binding (Pancreas)
CCK-8 sulphated was radiolabelled with ^125 I-Bolton Hunter reagent (2000 Ci/mmole). Receptor binding was performed according to Chang and Lotti (Proc. Natl. Acad. Sci. 83, 4923-4926, 1986) with minor modifications.
Male Sprague-Dawley rats (150-200 g) were sacrificed by decapitation. The whole pancreas was dissected free of fat tissue and was homogenized in 25 volumes of ice-cold 10 mM N-2-hydroxyethyl-piperazine-N'-2-ethane sulphonic acid (HEPES) buffer with 0.1% soya bean trypsin inhibitor (pH 7.4 at 25° C.) with a Kinematica Polytron. The homogenates were centrifuged at 47,800 g for 10 min. Pellets were resuspended in 10 volumes of binding assay buffer (20mM (HEPES)), 1 mM ethylene glycol-bis-(β-aminoethylether-N,N'-tetraacetic acid) (EGTA), 5 mM MgCl2, 150 mM NaCl, bacitracin 0.25 mg/ml, soya bean trypsin inhibitor 0.1 mg/ml, and bovine serum albumin 2 mg/ml pH 6.5 at 25° C.) using a Teflon (trademark) homogenizer, 15 strokes at 500 rpm. The homogenate was further diluted in binding assay buffer to give a final concentration of 0.5 mg original wet weight/1 ml buffer. […] The radioactivity on the filters was counted with a LKB gamma counter. […]

CCK Receptor (Brain) = biological target: T2, CCK Receptor (Brain) (Cavia porcellus, UniProt H0VZC5); assay: CCK Receptor Binding (Brain): inhibition of 125I-CCK-8 binding to guinea pig cortex membranes; parameters: species or system guinea pig (male Hartley); conditions: 50 pM 125I-CCK-8, 25° C., 2 hours, pH 6.5
T2 construct: the cortex was removed and homogenized in 25 mL ice-cold 0.32 M sucrose; from tissue; host or cells: guinea pig cerebral cortex P2 membranes
T2 sequence (H0VZC5 1-426): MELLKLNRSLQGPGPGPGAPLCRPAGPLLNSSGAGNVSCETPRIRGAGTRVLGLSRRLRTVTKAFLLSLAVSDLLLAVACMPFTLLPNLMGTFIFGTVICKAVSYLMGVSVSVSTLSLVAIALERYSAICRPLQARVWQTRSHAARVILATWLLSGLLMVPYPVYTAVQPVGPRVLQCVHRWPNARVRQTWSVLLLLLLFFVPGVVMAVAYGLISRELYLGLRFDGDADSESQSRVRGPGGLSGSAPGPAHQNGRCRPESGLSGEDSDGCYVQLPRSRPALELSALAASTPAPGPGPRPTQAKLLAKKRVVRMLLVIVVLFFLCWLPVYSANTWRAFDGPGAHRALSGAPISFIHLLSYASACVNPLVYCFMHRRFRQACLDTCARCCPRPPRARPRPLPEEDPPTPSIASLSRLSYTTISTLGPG
Procedure: 2. CCK Receptor Binding (Brain)
CCK-8 sulphated was radiolabelled and the binding was performed according to the description for the pancreas method with minor modifications.
Male Hartley guinea pigs (300-500 g) were sacrificed by decapitation and the cortex was removed and homogenized in 25 mL ice-cold 0.32 M sucrose. The homogenates were centrifuged at 1000 g for 10 minutes and the resulting supernatant was recentrifuged at 20,000 g for 20 minutes. The P2 pellet was resuspended in binding assay buffer (20 mM HEPES, 5 mM MgCl2, 0.25 mg/ml bacitracin, 1 mM EGTA pH 6.5 at 25° C.), using a Teflon (trademark) homogenizer (5 strokes at 500 rpm) to give a final concentration of 10 mg original wet weight /1.2 ml buffer. For the binding assay, 50 μl of buffer (for total binding) or unlabelled CCK-8 sulphated to give a final concentration of 1 μM (for nonspecific binding) or the compounds of Formula I (for determination of inhibition of ^125 I-CCK-8 binding) and 50 μl of 500 pM ^125 I-CCK-8 (i.e. final concentration of 50 pM) were added to 400 μl of the membrane suspensions in microfuge tubes. All assays were run in duplicate. […] The radioactivity on the filters was counted with a LKB gamma counter. […]

Row | IC50 (CCK Receptor (Pancreas)) | IC50 (CCK Receptor (Brain)) | Structure (SMILES)
1 | 500 nM | 0.123 nM | CN1C(=O)[C@H](NC(=O)Nc2cccc(-c3noc(=O)[nH]3)c2)N=C(C2CCCCC2)c2ccccc21 [Example 1, N-[3(R)-5-Cyclohexyl-2,3-dihydro-1-methyl-2-oxo-1H-1,4-benzodiazepin-3-yl]N'-[3-(5-oxo-4H-1,2,4-oxadiazolin,3-yl)phenyl]urea]
2 | 110 nM | 5.98 nM | CN1C(=O)C(NC(=O)Nc2cccc(-c3noc(=O)[nH]3)c2)N=C(C2CCC2)c2ccccc21 (racemic) [Example 2, N-[3(R,S)-5-Cyclobutyl-2,3-dihydro-1-methyl-2-oxo-1H-1,4-benzodiazepin-3-yl]N'-[3-(5-oxo-4H-1,2,4-oxadiazolin-3-yl)phenyl]urea]
